# Data taken from PubChem BioAssay (NCI).
#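 Five compound concentrations were applied to cells in 96-well plates for 48 hours; endpoints were derived by simple linear interpolation of the resulting dose-response curve. GI50 marks 50% less growth. TGI denotes the concentration required for complete inhibition of growth.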
# How the values were obtained:
# Test in all cases: NCI-60 cell line screen, 48 h
# EKVX NSCLC = system: EKVX NSCLC
# COLO 205 colon = system: COLO 205 colon
# OVCAR-8 ovarian = system: OVCAR-8 ovarian
# TK-10 renal = system: TK-10 renal
# CCRF-CEM leukemia = system: CCRF-CEM leukemia
# NCI-H226 lung = system: NCI-H226 lung
# SK-MEL-5 melanoma = system: SK-MEL-5 melanoma
# HOP-92 NSCLC = system: HOP-92 NSCLC
# SW-620 colon = system: SW-620 colon
# CAKI-1 renal = system: CAKI-1 renal
# OVCAR-3 ovarian = system: OVCAR-3 ovarian
# NCI-H460 lung = system: NCI-H460 lung
# RXF 393 renal = system: RXF 393 renal
# SF-295 CNS = system: SF-295 CNS
# A549 NSCLC = system: A549 NSCLC
# A498 renal = system: A498 renal
# OVCAR-4 ovarian = system: OVCAR-4 ovarian
# KM12 colon = system: KM12 colon
# NCI-H522 lung = system: NCI-H522 lung
# K-562 leukemia = system: K-562 leukemia
# IGROV1 ovarian = system: IGROV1 ovarian
# SN12C renal = system: SN12C renal
# DU-145 prostate = system: DU-145 prostate
# HL-60(TB) leukemia = system: HL-60(TB) leukemia
# UACC-62 melanoma = system: UACC-62 melanoma
# OVCAR-5 ovarian = system: OVCAR-5 ovarian
# HCT-116 colon = system: HCT-116 colon
# SF-268 CNS = system: SF-268 CNS
# MOLT-4 leukemia = system: MOLT-4 leukemia
# NCI/ADR-RES ovarian = system: NCI/ADR-RES ovarian
# MDA-MB-231 breast = system: MDA-MB-231 breast
# HS 578T breast = system: HS 578T breast
# UO-31 renal = system: UO-31 renal
# SNB-75 CNS = system: SNB-75 CNS
# HCC-2998 colon = system: HCC-2998 colon
# SNB-19 CNS = system: SNB-19 CNS
# ACHN renal = system: ACHN renal
# SR leukemia = system: SR leukemia
# SK-MEL-2 melanoma = system: SK-MEL-2 melanoma
# SK-MEL-28 melanoma = system: SK-MEL-28 melanoma
# UACC-257 melanoma = system: UACC-257 melanoma
# NCI-H23 lung = system: NCI-H23 lung
# PC-3 prostate = system: PC-3 prostate
# RPMI-8226 leukemia = system: RPMI-8226 leukemia
# LOX IMVI melanoma = system: LOX IMVI melanoma
# MDA-MB-435 = system: MDA-MB-435
# U251 CNS = system: U251 CNS
# M14 melanoma = system: M14 melanoma
# HT29 colon = system: HT29 colon
# 786-0 renal = system: 786-0 renal
# HCT-15 colon = system: HCT-15 colon
# HOP-62 NSCLC = system: HOP-62 NSCLC
# MCF7 breast = system: MCF7 breast
# BT-549 breast = system: BT-549 breast
smiles,measurement,setting,value
Cc1cc(C)c(-c2cc(O)c(-c3c(C)cc(C)cc3C)cc2O)c(C)c1,GI50,EKVX NSCLC,5.83 µM
same,TGI,EKVX NSCLC,> 100 µM
same,GI50,COLO 205 colon,2.27 µM
same,TGI,COLO 205 colon,5.68 µM
same,GI50,OVCAR-8 ovarian,5.37 µM
same,TGI,OVCAR-8 ovarian,> 100 µM
same,GI50,TK-10 renal,> 100 µM
same,TGI,TK-10 renal,> 100 µM
same,GI50,CCRF-CEM leukemia,4.1 µM
same,TGI,CCRF-CEM leukemia,> 100 µM
same,GI50,NCI-H226 lung,38.7 µM
same,TGI,NCI-H226 lung,> 100 µM
same,GI50,SK-MEL-5 melanoma,1.61 µM
same,TGI,SK-MEL-5 melanoma,31.2 µM
same,GI50,HOP-92 NSCLC,37.2 µM
same,TGI,HOP-92 NSCLC,> 100 µM
same,GI50,SW-620 colon,3.17 µM
same,TGI,SW-620 colon,> 100 µM
same,GI50,CAKI-1 renal,4.23 µM
same,TGI,CAKI-1 renal,> 100 µM
same,GI50,OVCAR-3 ovarian,2.05 µM
same,TGI,OVCAR-3 ovarian,4.85 µM
same,GI50,NCI-H460 lung,3.45 µM
same,TGI,NCI-H460 lung,> 100 µM
same,GI50,RXF 393 renal,2.77 µM
same,TGI,RXF 393 renal,> 100 µM
same,GI50,SF-295 CNS,2.68 µM
same,TGI,SF-295 CNS,> 100 µM
same,GI50,A549 NSCLC,4.6 µM
same,TGI,A549 NSCLC,> 100 µM
same,GI50,A498 renal,2.58 µM
same,TGI,A498 renal,> 100 µM
same,GI50,OVCAR-4 ovarian,7.6 µM
same,TGI,OVCAR-4 ovarian,> 100 µM
same,GI50,KM12 colon,2.19 µM
same,TGI,KM12 colon,> 100 µM
same,GI50,NCI-H522 lung,1.74 µM
same,TGI,NCI-H522 lung,4.46 µM
same,GI50,K-562 leukemia,2.91 µM
same,TGI,K-562 leukemia,> 100 µM
same,GI50,IGROV1 ovarian,4.18 µM
same,TGI,IGROV1 ovarian,> 100 µM
same,GI50,SN12C renal,5.52 µM
same,TGI,SN12C renal,> 100 µM
same,GI50,DU-145 prostate,3.35 µM
same,TGI,DU-145 prostate,15.2 µM
same,GI50,HL-60(TB) leukemia,3.21 µM
same,TGI,HL-60(TB) leukemia,> 100 µM
same,GI50,UACC-62 melanoma,3.18 µM
same,TGI,UACC-62 melanoma,> 100 µM
same,GI50,OVCAR-5 ovarian,11.3 µM
same,TGI,OVCAR-5 ovarian,> 100 µM
same,GI50,HCT-116 colon,3.51 µM
same,TGI,HCT-116 colon,> 100 µM
same,GI50,SF-268 CNS,5.83 µM
same,TGI,SF-268 CNS,> 100 µM
same,GI50,MOLT-4 leukemia,6.93 µM
same,TGI,MOLT-4 leukemia,> 100 µM
same,GI50,NCI/ADR-RES ovarian,4.33 µM
same,TGI,NCI/ADR-RES ovarian,> 100 µM
same,GI50,MDA-MB-231 breast,3.29 µM
same,TGI,MDA-MB-231 breast,11.3 µM
same,GI50,HS 578T breast,3.29 µM
same,TGI,HS 578T breast,> 100 µM
same,GI50,UO-31 renal,9.7 µM
same,TGI,UO-31 renal,> 100 µM
same,GI50,SNB-75 CNS,2.87 µM
same,TGI,SNB-75 CNS,> 100 µM
same,GI50,HCC-2998 colon,2.9 µM
same,TGI,HCC-2998 colon,> 100 µM
same,GI50,SNB-19 CNS,3.58 µM
same,TGI,SNB-19 CNS,> 100 µM
same,GI50,ACHN renal,7.43 µM
same,TGI,ACHN renal,> 100 µM
same,GI50,SR leukemia,2.43 µM
same,TGI,SR leukemia,> 100 µM
same,GI50,SK-MEL-2 melanoma,4.55 µM
same,TGI,SK-MEL-2 melanoma,> 100 µM
same,GI50,SK-MEL-28 melanoma,8.14 µM
same,TGI,SK-MEL-28 melanoma,> 100 µM
same,GI50,UACC-257 melanoma,> 100 µM
same,TGI,UACC-257 melanoma,> 100 µM
same,GI50,NCI-H23 lung,4.05 µM
same,TGI,NCI-H23 lung,> 100 µM
same,GI50,PC-3 prostate,4.44 µM
same,TGI,PC-3 prostate,> 100 µM
same,GI50,RPMI-8226 leukemia,5.82 µM
same,TGI,RPMI-8226 leukemia,> 100 µM
same,GI50,LOX IMVI melanoma,4.39 µM
same,TGI,LOX IMVI melanoma,> 100 µM
same,GI50,MDA-MB-435,0.482 µM
same,TGI,MDA-MB-435,> 100 µM
same,GI50,U251 CNS,4.22 µM
same,TGI,U251 CNS,> 100 µM
same,GI50,M14 melanoma,2.77 µM
same,TGI,M14 melanoma,> 100 µM
same,GI50,HT29 colon,3.18 µM
same,TGI,HT29 colon,65.1 µM
same,GI50,786-0 renal,6.49 µM
same,TGI,786-0 renal,> 100 µM
same,GI50,HCT-15 colon,3.73 µM
same,TGI,HCT-15 colon,> 100 µM
same,GI50,HOP-62 NSCLC,4.55 µM
same,TGI,HOP-62 NSCLC,> 100 µM
same,GI50,MCF7 breast,2.46 µM
same,TGI,MCF7 breast,> 100 µM
same,GI50,BT-549 breast,6.39 µM
same,TGI,BT-549 breast,> 100 µM
